Reference: ChEMBL document CHEMBL1201862, “PubChem BioAssay data set” (2004)
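Dose response: 5 concentrations. Exposure: 48 h. Format: 96-well plates. Endpoint: linear interpolation; highest concentration if not reached. GI50: concentration for 50% inhibition of growth.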 The source made the active and inactive calls. Rule as the data show it: active = GI50 up to about 1.1 µM and inactive = higher. Square brackets hold non-standard residues; d marks the D form. Peptide text beside a SMILES is read from it. * marks the point of attachment. ξ: configuration not given here. Propanoyl(3-(4-MeO-Ph)) = COc1ccc(CCC(=O)*)cc1; Thr(3ξ) = CC(O)[C@H](N)C(=O)O; dNMeL = CN[C@H](CC(C)C)C(=O)O; ξLac = CC(O)C(=O)O

Key:
Experiment in all cases: DTP human tumour cell line panel, 48 h
[1] = test system: 786-0
[2] = test system: COLO 205
[3] = test system: DLD-1
[4] = test system: HCT-116
[5] = test system: HOP-62
[6] = test system: IGROV-1
[7] = test system: KM12
[8] = test system: M19-MEL
[9] = test system: OVCAR-3
[10] = test system: OVCAR-5
[11] = test system: RPMI-8226
[12] = test system: SF-539
[13] = test system: SNB-19
[14] = test system: UO-31
[15] = test system: DU-145
[16] = test system: Hs-578T
[17] = test system: MDA-MB-435
[18] = test system: MDA-N
[19] = test system: NCI/ADR-RES
[20] = test system: RXF 393

Measured: GI50

O=C(O)C12C3C4C1C1C2C3C41I (centres undefined)
inactive: [1] > 100 µM | [2] > 100 µM | [3] > 100 µM | [4] > 100 µM | [5] > 100 µM | [6] > 100 µM | [7] > 100 µM | [8] > 100 µM | [9] > 100 µM | [10] > 100 µM | [11] > 100 µM | [12] > 100 µM | [13] > 100 µM | [14] > 100 µM

Cc1cc(C)cc(C(=N)c2ccccc2Cc2cccc3ccccc23)c1
inactive: [1] 15.2 µM | [2] 21.3 µM | [15] 16.2 µM | [4] 10.1 µM | [5] 18 µM | [16] 3.47 µM | [6] 17.4 µM | [7] 11.4 µM | [17] 17.2 µM | [18] 21.1 µM | [19] 20.2 µM | [9] 18.7 µM | [10] 16.6 µM | [11] 20.3 µM | [20] 17.3 µM | [12] 16.1 µM | [13] 19.5 µM | [14] 26.4 µM

O=S(=O)(N/N=C\c1c2ccccc2[n+]([O-])c2ccccc12)c1ccc(Cl)cc1
inactive: [1] 43.5 µM | [2] > 100 µM | [3] > 100 µM | [4] 45.5 µM | [5] 80 µM | [6] > 100 µM | [7] > 100 µM | [8] > 100 µM | [9] > 100 µM | [10] > 100 µM | [11] > 100 µM | [13] 53.3 µM | [14] > 100 µM

N#CC1CCCCC1NC1(C#N)CCCCC1 (centres undefined)
inactive: [1] > 100 µM | [2] > 100 µM | [3] > 100 µM | [5] > 100 µM | [6] > 100 µM | [7] > 100 µM | [9] > 100 µM | [11] > 100 µM | [20] > 100 µM | [12] > 100 µM | [13] > 100 µM | [14] > 100 µM

Cc1ccc(S(=O)(=O)C(C#N)c2nc3ccccc3nc2N2CCOCC2)cc1 (centres undefined)
inactive: [1] 30.2 µM | [2] 30.3 µM | [3] 27.3 µM | [4] 18.2 µM | [5] 20.5 µM | [6] 13.6 µM | [7] 18.3 µM | [8] 26.7 µM | [9] 33.8 µM | [10] > 100 µM | [11] 22 µM | [12] 38.8 µM | [13] 28.6 µM | [14] 32.1 µM

CCOC(=O)c1nc2ccccc2nc1Oc1ccc(C#N)cc1
inactive: [1] > 100 µM | [2] > 100 µM | [15] > 100 µM | [4] > 100 µM | [5] > 100 µM | [16] > 100 µM | [6] > 100 µM | [7] > 100 µM | [17] > 100 µM | [18] > 100 µM | [19] > 100 µM | [9] > 100 µM | [10] > 100 µM | [11] > 100 µM | [20] > 100 µM | [12] > 100 µM | [13] > 100 µM | [14] > 100 µM

CN(C)CCCNCc1cccc2ccccc12
inactive: [1] > 100 µM | [2] > 100 µM | [15] > 100 µM | [4] > 100 µM | [5] > 100 µM | [16] > 100 µM | [6] > 100 µM | [7] > 100 µM | [17] > 100 µM | [18] > 100 µM | [19] > 100 µM | [9] > 100 µM | [10] > 100 µM | [11] > 100 µM | [20] > 100 µM | [12] > 100 µM | [13] > 100 µM | [14] > 100 µM

Cc1ccc2nc3c(C(=O)NCCN(C)C)cccc3nc2c1
inactive: [1] 11.5 µM | [2] 2.59 µM | [4] 1.59 µM | [5] 3.85 µM | [6] 7.03 µM | [7] 3.94 µM | [8] 2.44 µM | [9] 5.38 µM | [10] 6.34 µM | [11] 3.6 µM | [20] 3.56 µM | [12] 4.2 µM | [13] 5.96 µM

C/C=C1\CN2CCc3c([nH]c4ccccc34)C2CC1C(=O)OC (centres undefined)
inactive: [1] > 322 µM | [2] > 322 µM | [3] > 322 µM | [4] > 322 µM | [5] > 322 µM | [6] > 322 µM | [7] > 322 µM | [9] > 322 µM | [10] > 322 µM | [11] > 322 µM | [20] > 322 µM | [12] > 322 µM | [13] > 322 µM

CC1(C)OC(C[C@]2(C#N)C[C@H](CCl)OC(C)(C)O2)C[C@@H](C[C@]2(C#N)C[C@H](CCl)OC(C)(C)O2)O1 (some centres undefined)
inactive: [1] > 100 µM | [2] > 100 µM | [3] > 100 µM | [4] 60.4 µM | [5] > 100 µM | [6] > 100 µM | [7] > 100 µM | [8] > 100 µM | [9] > 100 µM | [10] > 100 µM | [11] > 100 µM | [12] > 100 µM | [13] > 100 µM

CC(C)(CN)CN
inactive: [1] > 100 µM | [2] > 100 µM | [15] > 100 µM | [4] > 100 µM | [5] > 100 µM | [16] > 100 µM | [6] > 100 µM | [7] > 100 µM | [17] > 100 µM | [18] > 100 µM | [19] > 100 µM | [9] > 100 µM | [10] > 100 µM | [11] > 100 µM | [20] > 100 µM | [12] > 100 µM | [13] > 100 µM | [14] > 100 µM

CSc1ccc2c(cc1=O)[C@@H](NC(=O)c1cc(O)c(O)c(O)c1)CCc1cc(O)c(O)c(O)c1-2
inactive: [1] 34.6 µM | [2] 28 µM | [3] 21.2 µM | [4] 16 µM | [5] 49.5 µM | [7] 20.9 µM | [8] 14.6 µM | [9] 31 µM | [10] 15 µM | [12] 24.7 µM | [13] 81.3 µM | [14] 25.9 µM

COC(=O)[C@@H](NC(=O)[C@@H](CC(C)C)N(C)C(=O)[C@@H]1CCCN1C(=O)C(C)O)C(C)OC(=O)CCc1ccc(OC)cc1 (some centres undefined) (H-[ξLac]P[dNMeL][Thr(3ξ)](Propanoyl(3-(4-MeO-Ph)))-OMe)
inactive: [1] > 100 µM | [2] > 100 µM | [15] > 100 µM | [4] > 100 µM | [5] > 100 µM | [16] > 100 µM | [6] > 100 µM | [7] > 100 µM | [17] > 100 µM | [18] > 100 µM | [19] > 100 µM | [9] > 100 µM | [10] > 100 µM | [11] > 100 µM | [20] > 100 µM | [12] > 100 µM | [13] > 100 µM | [14] > 100 µM
